Test results taken from US11840686B2, “Modulation of prekallikrein (PKK) expression” (Ionis Pharmaceuticals, Inc., priority 2013, dated 2023).
Strand notation (5' to 3'): a small letter for the sugar, then the base; units joined by * are phosphorothioate-linked, units joined directly phosphodiester-linked; [ ] holds rarer units or linkages, { } end groups; capitals alone tell only the bases. e = 2'-O-(2-methoxyethyl) (MOE); k = constrained ethyl (cEt); [5mC] = 5-methylcytosine; d = 2'-deoxy (DNA)

Tests used:
human PKK mRNA [1] = experiment: Antisense inhibition of human PKK mRNA in HepaRG cells, 1,000 nM, MOE/deoxy/cEt oligonucleotides (Example 3); type: cell-based
Outline: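 Readout is percent PKK mRNA reduction against untreated controls, by real-time PCR (RTS3454) adjusted for total RNA via RIBOGREEN. Oligonucleotides, phosphorothioate gapmers of 16 nucleosides with cEt, MOE and deoxy sugars, were delivered at 1,000 nM by electroporation to 20,000 HepaRG cells/well for roughly 24 h.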

human PKK mRNA [2] = experiment: Dose-dependent antisense inhibition of human PKK in HepaRG cells, 0.11-3.00 uM (Example 6); type: cell-based; conditions: for IC50: 0.11-3.00 μM; for percent inhibition of PKK mRNA, 0.11 μM / percent inhibition of PKK mRNA, 0.33 μM / percent inhibition of PKK mRNA, 1.00 μM / percent inhibition of PKK mRNA, 3.00 μM: electroporation, approx. 16 hours, relative to untreated control cells
Experimental: Cells were plated at a density of 20,000 cells per well and transfected using electroporation with 0.11 μM, 0.33 μM, 1.00 μM, and 3.00 μM concentrations of antisense oligonucleotide. After a treatment period of approximately 16 hours, RNA was isolated from the cells and PKK mRNA levels were measured by quantitative real-time PCR. Human PKK primer probe set RTS3454 was used to measure mRNA levels. PKK mRNA levels were adjusted according to total RNA content, as measured by RIBOGREEN®. The antisense oligonucleotides were tested in a series of experiments that had similar culture conditions.
The half maximal inhibitory concentration (IC50) of each oligonucleotide is also presented.

Substance: 548348 (antisense eT*eG*kA*dG*dT*dG*dA*dT*dG*d[5mC]*d[5mC]*dT*dT*k[5mC]*k[5mC]*eA) [compound 548348]
- % inhibition (human PKK mRNA [1]; Table 27, HepaRG cells, 1,000 nM antisense oligonucleotide, human PKK mRNA): 82%
- IC50 (human PKK mRNA [2]): 400 nM
- percent inhibition of PKK mRNA, 0.11 μM (human PKK mRNA [2]): 19%
- percent inhibition of PKK mRNA, 0.33 μM (human PKK mRNA [2]): 46%
- percent inhibition of PKK mRNA, 1.00 μM (human PKK mRNA [2]): 67%
- percent inhibition of PKK mRNA, 3.00 μM (human PKK mRNA [2]): 91%

Substance: 548667 (antisense eT*eG*kG*d[5mC]*dA*dA*dG*d[5mC]*dT*dA*d[5mC]*d[5mC]*dT*kT*k[5mC]*eT) [compound 548667]
- % inhibition (human PKK mRNA [1]; PKK mRNA, HepaRG cells, 1,000 nM antisense oligonucleotide, Table 31): 51%
- IC50 (human PKK mRNA [2]): 700 nM
- percent inhibition of PKK mRNA, 0.11 μM (human PKK mRNA [2]): 0%
- percent inhibition of PKK mRNA, 0.33 μM (human PKK mRNA [2]): 37%
- percent inhibition of PKK mRNA, 1.00 μM (human PKK mRNA [2]): 73%
- percent inhibition of PKK mRNA, 3.00 μM (human PKK mRNA [2]): 86%

Substance: 547769 (antisense eT*eT*kG*dG*dA*dG*dG*dT*dG*dA*dG*dT*d[5mC]*kT*k[5mC]*eT) [compound 547769]
- % inhibition (human PKK mRNA [1]; Table 21 experiment, HepaRG cells, electroporation with 1,000 nM antisense oligonucleotide, approx. 24 hours, PKK mRNA by RT-PCR (RTS3454), relative to untreated control cells): 81%
- IC50 (human PKK mRNA [2]): 600 nM
- percent inhibition of PKK mRNA, 0.11 μM (human PKK mRNA [2]): 12%
- percent inhibition of PKK mRNA, 0.33 μM (human PKK mRNA [2]): 17%
- percent inhibition of PKK mRNA, 1.00 μM (human PKK mRNA [2]): 80%
- percent inhibition of PKK mRNA, 3.00 μM (human PKK mRNA [2]): 96%

Substance: 548570 (eA*eT*kG*d[5mC]*d[5mC]*dT*dT*dG*dT*dG*d[5mC]*d[5mC]*dT*kA*kT*eT; antisense) [compound 548570]
- % inhibition (human PKK mRNA [1]; HepaRG cells, 1,000 nM antisense oligonucleotide, Table 29): 74%
- IC50 (human PKK mRNA [2]): 400 nM
- percent inhibition of PKK mRNA, 0.11 μM (human PKK mRNA [2]): 20%
- percent inhibition of PKK mRNA, 0.33 μM (human PKK mRNA [2]): 40%
- percent inhibition of PKK mRNA, 1.00 μM (human PKK mRNA [2]): 70%
- percent inhibition of PKK mRNA, 3.00 μM (human PKK mRNA [2]): 94%

Substance: 548170 (eA*eG*kT*dT*dG*d[5mC]*dG*dA*d[5mC]*d[5mC]*dT*d[5mC]*dG*k[5mC]*kA*eT; antisense) [compound 548170]
- % inhibition (human PKK mRNA [1]; HepaRG cells, electroporation with 1,000 nM antisense oligonucleotide, approx. 24 hours, PKK mRNA by RT-PCR (RTS3454), relative to untreated control cells, Table 25 experiment): 68%
- IC50 (human PKK mRNA [2]): 2000 nM
- percent inhibition of PKK mRNA, 0.11 μM (human PKK mRNA [2]): 0%
- percent inhibition of PKK mRNA, 0.33 μM (human PKK mRNA [2]): 8%
- percent inhibition of PKK mRNA, 1.00 μM (human PKK mRNA [2]): 26%
- percent inhibition of PKK mRNA, 3.00 μM (human PKK mRNA [2]): 65%

Substance: 547998 (antisense e[5mC]*eT*kT*dG*dT*dG*dT*d[5mC]*d[5mC]*d[5mC]*dA*dT*dA*k[5mC]*kG*e[5mC]) [compound 547998]
- % inhibition (human PKK mRNA [1]; HepaRG cells, electroporation with 1,000 nM antisense oligonucleotide, approximately 24 hours, primer probe set RTS3454, relative to untreated control cells, experiment of Table 24): 82%
- percent inhibition of PKK mRNA, 0.11 μM (human PKK mRNA [2]): 55%
- percent inhibition of PKK mRNA, 0.33 μM (human PKK mRNA [2]): 73%
- percent inhibition of PKK mRNA, 1.00 μM (human PKK mRNA [2]): 91%
- percent inhibition of PKK mRNA, 3.00 μM (human PKK mRNA [2]): 91%
